Experimental findings from PubChem BioAssay (NCI) are described below.

Holding throughout (experiment): NCI anticancer screen, dose series, 48 h
Assay [1] concerns EKVX NSCLC.
Assay [2] has as its system MALME-3M melanoma.
The subject of assay [3] is NCI-H23 lung.
In assay [4] the test system is OVCAR-3 ovarian.
Assay [5] concerns RXF 393 renal.
The test system of assay [6] is SK-MEL-28 melanoma.
The subject of assay [7] is A549 NSCLC.
In assay [8] the test system is COLO 205 colon.
For assay [9], the system named is IGROV1 ovarian.
In assay [10] the test system is SK-MEL-5 melanoma.

Structures are written as SMILES.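 Exposure lasted 48 hours, with cells grown in 96-well plates and compounds tested at five concentrations. GI50 = concentration required for 50% inhibition of growth. TGI is the concentration that stops growth completely.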

Take `C=C(C)[C@@H]1CC[C@]2(C(=O)Nc3ccccn3)CC[C@]3(C)[C@H](CC[C@@H]4[C@@]5(C)CCCNC(C)(C)[C@@H]5CC[C@]43C)[C@@H]12`: the GI50 in assay [1] was 1.06 µM; in [2], 1.44 µM; in assay [3], 1.85 µM; in [4] it was 1.54 µM; in assay [5], 1.79 µM; in [6], 1.69 µM. For the same compound, the TGI in [1] was 2.53 µM; in [2], 2.84 µM; in assay [3], 3.77 µM; in assay [4] it was 2.92 µM; in assay [5], 3.27 µM; in assay [6], 3.13 µM.

Turning to `Nc1ccc(OCC(O)N2C(=O)c3ccccc3C2=O)cc1` (stereo not drawn), the TGI in assay [7], in assay [8], in [1], in assay [9], in assay [2] and in assay [4] was above 100 µM each time. For the same compound, the TGI in assay [6] and in [10] was above 100 µM in each case.

`COc1ccc2c(c1)CCC(CN1CCN(CCOC(c3ccc(F)cc3)c3ccc(F)cc3)CC1)C2O` (stereo not drawn): the TGI in [7] is 32.7 µM; in [8] it was 20.2 µM; in assay [1], 25.5 µM; in assay [9] it was 28.4 µM; in [2], 28 µM; in [3] it was 28.1 µM. In addition, the TGI in assay [4] turned out to be 32.5 µM; in [5] it was 26.3 µM; in assay [6] it was 30 µM; in assay [10], 20.1 µM.

For `COc1ccc2[nH]c3c([N+](=O)[O-])ccc(Cl)c3c(=O)c2c1`, the TGI in [7] is above 100 µM; in assay [8], 32.7 µM; in assay [1], above 100 µM; in assay [9], 18.6 µM; in [2] it was 40.4 µM; in assay [3] it was above 52.8 µM. In addition, the TGI in [4] is 31.7 µM; in assay [5] it was 32.2 µM; in assay [6], 98.1 µM; in [10], 55.2 µM.

Take `CC(C)(C)C1(c2ccc(C3(c4ccccc4)Oc4ccccc4S3)[nH]2)Oc2ccccc2S1` (stereo not drawn): the TGI in assay [7], in [1], in assay [9], in assay [2], in assay [3] and in assay [4] was above 100 µM throughout. Further, the TGI in assay [5] and in assay [10] was above 100 µM each time.

In the case of `C=C1CC23CCC4C(C)(C(=O)O)CCCC4(C)C2CCC1C3` (stereo not drawn), the TGI was above 100 µM in assay [7]; 39.5 µM in assay [8]; 75.5 µM in assay [1]; 94.9 µM in [9]; above 100 µM in assay [2]; above 100 µM in [3]. The TGI in assay [4], in assay [5] and in assay [6] was above 100 µM each time.

Consider `Cc1ccc(P(c2ccc(C)cc2)c2ccc(C)cc2)cc1`, for which the TGI was above 100 µM in [7]; 44.6 µM in assay [8]; above 100 µM in [1]; 53.6 µM in [9]; 42.4 µM in [2]; above 100 µM in assay [3]. In addition, the TGI in [4] stood at 29.5 µM; in assay [5] it was 30 µM; in assay [6], 56 µM; in assay [10], 33.1 µM.

On to `COC1/C=C\OC2(C)Oc3c(C)c(O)c4c(O)c(c(/C=N\OCCCc5ccccc5)c(O)c4c3C2=O)NC(=O)/C(C)=C\C=C/C(C)C(O)C(C)C(O)C(C)C(OC(C)=O)C1C` (stereo not drawn), for which the TGI in assay [7] was determined as 12.9 µM; in assay [8], 4.12 µM; in [1], 17.7 µM; in assay [9], 6.74 µM; in assay [2], 12 µM; in assay [3], 10 µM. Also, the TGI in assay [4] was determined as 9.61 µM; in assay [5], 6.92 µM; in assay [6] it was 4.65 µM; in [10], 3.55 µM.

For the compound `O=Nc1ccc(O)c2ncccc12`, the TGI in [7] was 30.4 µM; in assay [8], 30.6 µM; in assay [1] it was 5.8 µM; in [9], 18.9 µM; in assay [2], 25.6 µM; in [3], 3.04 µM. For the same compound, the TGI in assay [4] stood at 12.4 µM; in assay [5], 5.61 µM; in assay [6], 17.3 µM; in assay [10], 19.7 µM.

Consider `C=C1C(=O)CCC1C(=O)O` (stereo not drawn), for which the TGI in [7], in [8], in assay [1], in [9], in assay [2] and in [3] was above 100 µM each time. Besides, the TGI in assay [4], in assay [5], in assay [6] and in assay [10] was above 100 µM throughout.

Regarding `C[C@H](C(=O)N[C@@H](Cc1ccc(-c2ccccc2)cc1)C(=O)NC1CC(C)(C)N(C)C(C)(C)C1)c1ccc(-c2ccccc2)c(F)c1`, the GI50 in assay [8] was 1.37 µM; in assay [3] it was 1.54 µM; in assay [4], 1.19 µM; in [5], 0.884 µM; in assay [6], 1.67 µM; in assay [10], 1.59 µM. Also, the TGI is 2.87 µM in [8]; 3.08 µM in assay [3]; 2.56 µM in [4]; 2.28 µM in assay [5]; 3.18 µM in assay [6]; 2.94 µM in assay [10].

Regarding `C=C(C)C1CC2=C(O1)C(=O)c1ccccc1C2=O` (stereo not drawn), the TGI in assay [7] worked out at 42.3 µM; in assay [8] it was 37.4 µM; in assay [1], 60.3 µM; in [9] it was 36.1 µM; in assay [3], 45.1 µM; in assay [4], 34.4 µM. The TGI in [5] was 33 µM; in [6] it was 34.2 µM; in [10], 28.1 µM.

For `Nc1nc(N)c2ncn(-c3ccc(Cl)c(Cl)c3)c2n1`, the TGI is above 100 µM in assay [7]; 28.7 µM in assay [8]; above 100 µM in [1]; 64.6 µM in [9]; 49.2 µM in assay [2]; 40.4 µM in assay [3]. Moreover, the TGI in [4] was 44.1 µM; in assay [5], 50.8 µM; in [6], above 100 µM; in assay [10] it was above 100 µM.
